This is an account of results in patent US9645154B2, “Method for detecting cancer cell” (ARKRAY, Inc., priority 2010, dated 2017).

In assay [1] the test system is human gastric cancer cells (SNU-1). The experiment in a line: Aminolevulinic acid (with FeCl2 and ascorbic acid) labeling, fluorescence microscopy image analysis (positive rate). It is filed as cell-based. The following applies: hemolyzed, 0.3 mM, 60 min, 37° C., threshold value 198. From the text: In accordance with the conventional method, cultured human prostate cancer cell line PC3 (DS Pharma Biomedical Co., Ltd.) was harvested with trypsin (Invitrogen). The human gastric cancer cell line SNU-1 (ATCC), which is a suspension cell line, was directly harvested without any trypsin treatment. The cell suspension of the harvested cancer cells was centrifuged, and the supernatant was removed. The cells were resuspended with Dulbecco's PBS (+) (Nissui Pharmaceutical Co., Ltd.) and centrifuged, and the supernatant was removed again.
The number of the cells was counted using a hemacytometer in accordance with the conventional method, and then 10^5 to 10^6 cells per sample (cell suspension) was aliquoted. The sample was centrifuged to remove the supernatant. […] The image was captured with a fluorescence microscope (Nikon Corp.).
The wavelengths for the fluorescence filter set: EX (excitation wavelength): 402±7.5, DM: 430 or longer, BA (fluorescence wavelength): 625±15.
The acquired images were analyzed using an image analysis software NIS-ELEMENTS (trade name, Nikon Corp.) to evaluate the fluorescence intensity of the cell. […]

Assay [2] concerns Mixture of blood cells and PC3 cells. Kind of assay: Aminolevulinic acid labeling combined with anti-CD45/anti-CD34 and anti-EpCAM antibodies. It is filed as cell-based, human. The conditions noted are these: ALA: 0.3 mM, FeC12: 0.3 mM, Ascorbic acid: 0.3 mM, 37° C., 60 min, threshold value 216. From the text:
Blood was collected from a human subject using a vacuum blood collection tube (with EDTA•2K). Blood cells were separated using HetaSep (STEMCELL Technologies) in accordance with the manufacturer's instructions.
In accordance with the conventional method, cultured human prostate cancer cell line (PC3, DS Pharma Biomedical Co., Ltd.) was harvested with trypsin (Invitrogen). The cell suspension of the harvested cancer cells was centrifuged, and the supernatant was removed. The cells were resuspended with Dulbecco's PBS (+) (Nissui Pharmaceutical Co., Ltd.) and centrifuged, and the supernatant was removed again.
The number of the cells in the suspension of the isolated blood cells was counted using a hemacytometer in accordance with the conventional method. Further, the number of the cells was also counted for the human prostate cancer cell line (PC3) in a similar manner, and the cells were added to the blood cell suspension to give a cell number of 1% of that of the blood cells. […]
The number of the cells was counted using a hemacytometer in accordance with the conventional method, and then 10^5 to 10^6 cells per sample (cell suspension) was aliquoted. […] The image was captured with a fluorescence microscope (Nikon Corp.). Protoporphyrin IX was detected with the fluorescence filter set 1, the PE-labeled anti-EpCAM antibody was detected with the fluorescence filter set 2, and the FITC-labeled anti-CD45 antibody and the FITC-labeled anti-CD34 antibody were detected with the fluorescence filter set 3.
Wavelengths for the fluorescence filter set 1: EX (excitation wavelength) 402±7.5 nm, DM 430 nm or longer, BA (fluorescence wavelength) 625±15 nm.
Wavelengths for the fluorescence filter set 2: EX (excitation wavelength) 535±25 nm, DM 575 nm or longer, BA (fluorescence wavelength) 590 nm or longer.
Wavelengths for the fluorescence filter set 3: EX (excitation wavelength) 475±15 nm, DM 505 nm or longer, BA (fluorescence wavelength) 525±10 nm. […]

`NCC(=O)CCC(=O)O` [aminolevulinic acid, 5-amino-4-oxopentanoic acid]: the “Positive rate (Cancer cells)” value in assay [1] was 81.6%. Also, the “False-positive rate (using α-CD45/34)” value in assay [2] (FITC-α-CD45/CD34 antibody) is recorded as 0.0%. Moreover, the Positive rate in assay [2] (PC3 at 1% of blood cells, hemolyzed) worked out at 85%. Further, the “False-positive rate (without using α-CD45/34)” value in assay [2] turned out to be 1.1%.
